Common to all, as to assay type: cell-based
In assay [1] the test system is Wnt activity (Sp5-Luc reporter, SW480 colon carcinoma cells). As to the kind of experiment: Screening assay for Wnt activity: Sp5-Luc reporter gene assay in SW480 cells. Particulars: Homo sapiens, overnight incubation, 10-point dose-response from 10 μM. An excerpt:
The screening assay for Wnt activity is described as follows. Reporter cell lines can be generated by stably transducing cancer cell lines (e.g., colon cancer) or primary cells (e.g., IEC-6 intestinal cells) with a lentiviral construct that includes a Wnt-responsive promoter driving expression of the firefly luciferase gene.
SW480 colon carcinoma cells were transduced with a lentiviral vector expressing luciferase with a human Sp5 promoter consisting of a sequence of eight TCF/LEF binding sites. SW480 cells stably expressing the Sp5-Luc reporter gene and a hygromycin resistance gene were selected by treatment with 150 μg/mL of hygromycin for 7 days. These stably transduced SW480 cells were expanded in cell culture and used for all further screening activities. Each compound was dissolved in DMSO as a 10 mM stock and used to prepare compound source plates. Serial dilution (1:3, 10-point dose-response curves starting from 10 μM) and compound transfer was performed using the ECHO 550 (Labcyte, Sunnyvale, Calif.) into 384-well white solid bottom assay plates (Greiner Bio-One) with appropriate DMSO backfill for a final DMSO concentration of 0.1%. For Sp5-Luc reporter gene assays, the cells were plated at 4,000 cells/well in 384-well plates with medium containing 1% fetal bovine serum and incubated overnight at 37° C. and 5% CO2. Following incubation, 20 μl of BrightGlo luminescence reagent (Promega) was added to each well of the 384-well assay plates. The plates were placed on an orbital shaker for 2 min and then luminescence was quantified using the Envision (Perkin Elmer) plate reader. Readings were normalized to DMSO only treated cells, and normalized activities were utilized for EC50 calculations using the dose-response log (inhibitor) vs. response -variable slope (four parameters) nonlinear regression feature available in GraphPad Prism 5.0 (or Dotmatics). For EC50 of >10 μM, the percent inhibition at 10 μM is provided.
Background: Reporter assays use an easily measured gene product as a stand-in for the process of interest.

In assay [2] the test system is SW480 colon cancer cells. The assay can be described thus: Cell viability assay (CellTiter-Blue), four days. Particulars: Homo sapiens, 96 h, CellTiter-Blue cell viability. Here is the method: Representative compounds were screened using the following assay procedure to assess the effect on cell viability as described below.
Each compound was dissolved in DMSO as a 10 mM stock and used to prepare compound source plates. Serial dilution (1:3, 8-point dose-response curves from 10 μM to 0.0045 μM) and compound transfer was performed using the ECHO 550 (Labcyte, Sunnyvale, Calif.) into 96-well clear bottom, black-walled plates (Corning-Costar).
Approximately 2×10^3 SW480 colon cancer cells were seeded into each well and allowed to incubate in the presence or absence of compound for four days at 37° C./5% CO2. Eight replicates of DMSO-treated cells served as controls and cells treated with compound were performed in duplicate.
After incubation, 20 μL of CellTiter-Blue (Promega) was added to each well allowed to incubate for approximately 3 hours. This reagent was a buffered solution which contains resazurin, metabolically active cells were able to reduce rezarurin (blue) into resorufin (pink) which was highly fluorescent. This measured fluorescence was used as a readout for cell viability.
After incubation, the plates were read at Ex 560 nm Em 590 nm (Cytation 3, BioTek). Dose-response curves were generated and EC50 concentration values were calculated using non-linear regression curve fit in the GraphPad Prism (San Diego, Calif.) or Dotmatics' Studies Software (Bishops Stortford, UK). For EC50 of >10 μM, the percent inhibition at 10 μM is provided.
(In general: The colour change of resazurin is a common sign of viable cells or microbes.)

In assay [3] the test system is primary human fibroblasts derived from IPF patients (LL29 cells), α-smooth muscle actin (αSMA). The assay can be described thus: Inhibition of the fibrotic process: TGF-β1-treated primary human fibroblasts from IPF patients, αSMA staining. Particulars: Fibroblast, 96 h, LL29 fibroblasts from IPF patients, TGF-β1 20 ng/mL, 4 days, inhibition of fibrotic process. The source says: Representative compounds were screened using primary human fibroblasts (derived from IPF patients) treated with TGF-β1 to determine their ability to inhibit the fibrotic process.
Primary human fibroblasts derived from IPF patients (LL29 cells) [^1Xiaoqiu Liu, et. al., “Fibrotic Lung Fibroblasts Show Blunted Inhibition by cAMP Due to Deficient cAMP Response Element-Binding Protein Phosphorylation”, Journal of Pharmacology and Experimental Therapeutics (2005), 315(2), 678-687; ^2Watts, K. L., et. al., “RhoA signaling modulates cyclin D1 expression in human lung fibroblasts; implications for idiopathic pulmonary fibrosis”, Respiratory Research (2006), 7(1), 88] were obtained from American Type Culture Collection (ATCC) and expanded in F12 medium supplemented with 15% Fetal Bovine Serum and Penicillin/Streptomycin.
Each compound was dissolved in DMSO as a 10 mM stock and used to prepare compound source plates. Serial dilution (1:2, 11-point dose-response curves from 10 μM to 1.87 nM) and compound transfer was performed using the ECHO 550 (Labcyte, Sunnyvale, Calif.) into 384-well clear bottom assay plates (Greiner Bio-One) with appropriate DMSO backfill for a final DMSO concentration of 0.1%. LL29 cells are plated at 1,500 cells/well in 80 μL/well F12 medium supplemented with 1% Fetal Bovine Serum. One hour after addition of the cells, TGF-β1 (Peprotech; 20 ng/mL) was added to the plates to induce fibrosis (ref. 1 and 2 above). Wells treated with TGF-β1 and containing DMSO were used as controls. Cells were incubated at 37° C. and 5% CO2 for 4 days. Following incubation for 4 days, SYTOX green nucleic acid stain (Life Technologies [Thermo Fisher Scientific]) was added to the wells at a final concentration of 1 μM and incubated at room temperature for 30 min. Cells were then fixed using 4% formaldehyde (Electron Microscopy Sciences), washed 3 times with PBS followed by blocking and permeabilization using 3% Bovine Serum Albumin (BSA; Sigma) and 0.3% Triton X-100 (Sigma) in PBS. Cells were then stained with antibody specific to α-smooth muscle actin (αSMA; Abcam) (ref. 1 and 2 above) in 3% Bovine Serum Albumin (BSA; Sigma) and 0.3% Triton X-100 (Sigma) in PBS, and incubated overnight at 4° C. Cells were then washed 3 times with PBS, followed by incubation with Alexa Flor-647 conjugated secondary antibody (Life Technologies [Thermo Fisher Scientific]) and DAPI at room temperature for 1 hour. Cells were then washed 3 times with PBS and plates were sealed for imaging. αSMA staining was imaged by excitation at 630 nm and emission at 665 nm and quantified using the Compartmental Analysis program on the CellInsight CX5 (Thermo Scientific). Dead or apoptotic cells were excluded from analysis based on positive SYTOX green staining. % of total cells positive for αSMA were counted in each well and normalized to the average of 11 wells treated with TGF-β1 on the same plate using Dotmatics' Studies Software. The normalized averages (fold change over untreated) of 3 replicate wells for each compound concentration were used to create dose-responses curves and EC50 values were calculated using non-linear regression curve fit in the Dotmatics' Studies Software. For EC50 of >10 μM, the percent inhibition at 10 μM is provided.

Assay [4] relates to IL-6 (THP-1 cells). As to the kind of experiment: Inhibition of IL-6 in LPS-stimulated THP-1 monocytes (HTRF). Particulars: Homo sapiens, LPS 500 ng/mL, IL-6 by HTRF. Here is the method:
Human monocyte cell line (THP-1 cells; Catalog # TIB-202, ATCC, Manassas, Va.) were cultured in Roswell Park Memorial Institute (RPMI) 1640 Medium (Catalog #21870-100, Buffalo, N.Y.) with 1% L-glutamine, 1% HEPES, 1% Sodium Pyruvate, 2% Sodium Bicarbonate supplemented with 100 units/mL penicillin, 50 μg/mL streptomycin, 2-mercaptoethanol (0.05 mM) [basal medium] and 10% fetal bovine serum (Catalog #16140089, Life Technologies, Carlsbad, Calif.) at 37° C. and 5% CO2.
THP-1 cells were cultured in basal media with 1% FBS for 24 hours before the start of the assay. Each compound was dissolved in DMSO as a 10 mM stock and used to prepare compound source plates. Serial dilution (1:3, 10-point dose-response curves starting from 10 μM) and compound transfer was performed using the ECHO 550 (Labcyte, Sunnyvale, Calif.) into 384-well white low volume assay plates (Greiner Bio-One) with appropriate DMSO backfill for a final DMSO concentration of 0.1%. THP-1 cells were plated at 5000 cells/well in the 384-well plates and incubated at 37° C. for 2 h. 500 ng/mL of LPS was added after 2 hours and cells were incubated for another 22 hours at 37° C. Plates were spun in a centrifuge for 1 minute at […] and a mixture of anti-IL6 XL665, and anti-IL6 Cryptate diluted in reconstitution buffer (Cisbio Inc.) was added to each well. Following incubation for 3 hrs at room temperature, Homogeneous Time-Resolved Fluorescence (HTRF) was measured using the Envision (Perkin Elmer) at 665 nm and […]. The ratio of fluorescence at 665 nm to 620 nm was used as a readout for IL6 quantification. All samples were processed in duplicate. Readings were normalized to DMSO treated cells and normalized activities were utilized for EC50 calculations using the dose-response log (inhibitor) vs. response -variable slope (four parameters) nonlinear regression feature available in GraphPad Prism 5.0 (or Dotmatics). For EC50 of >10 μM, the percent inhibition at 10 μM is provided.
For orientation: TR-FRET usually uses a lanthanide donor and a delayed reading to cut background.

Results on nine molecules are retold here after patent publication US10329309B2, “3-(3H-imidazo[4,5-B]pyridin-2-yl)-1H-pyrazolo[4,3-B]pyridines and therapeutic uses thereof” (Samumed, LLC, priority 2015, dated 2019).

For the molecule `c1csc(-c2ccnc3[nH]c(-c4n[nH]c5ccc(-c6ccncc6)nc45)nc23)c1` [Compound 354, 5-(Pyridin-4-yl)-3-(7-(thiophen-2-yl)-3H-imidazo[4,5-b]pyridin-2-yl)-1H-pyrazolo[4,3-b]pyridine], the EC50 in assay [1] is 0.731 µM; in assay [2], 0.405 µM; in assay [3] it was 0.387 µM; in assay [4], 1.39 µM.

As to `CN(C)CCNc1cc(F)cc(-c2ccnc3[nH]c(-c4n[nH]c5ccc(-c6cncc(OCc7ccccc7)c6)nc45)nc23)c1` [Compound 790, N^1-(3-(2-(5-(5-(Benzyloxy)pyridin-3-yl)-1H-pyrazolo[4,3-b]pyridin-3-yl)-3H-imidazo[4,5-b]pyridin-7-yl)-5-fluorophenyl)-N^2,N^2-dimethylethane-1,2-diamine], the 50% effective concentration (EC50) in assay [1] was determined as 2.66 µM; in assay [2] it was 2.22 µM; in assay [3], 2.5 µM; in assay [4], 4.77 µM.

For the molecule `c1ccc(CNCc2cncc(-c3ccc4[nH]nc(-c5nc6c(-c7ccsc7)ccnc6[nH]5)c4n3)c2)cc1` [Compound 304, N-Benzyl-1-(5-(3-(7-(thiophen-3-yl)-3H-imidazo[4,5-b]pyridin-2-yl)-1H-pyrazolo[4,3-b]pyridin-5-yl)pyridin-3-yl)methanamine], the EC50 was found to be 1.97 µM in assay [1], 1.4 µM in assay [2], 1.34 µM in assay [3] and 4.26 µM in assay [4].

`CN1CCN(c2ccnc3[nH]c(-c4n[nH]c5ccc(-c6cncc(OCc7ccccc7)c6)nc45)nc23)CC1` [Compound 646, 5-(5-(Benzyloxy)pyridin-3-yl)-3-(7-(4-methylpiperazin-1-yl)-3H-imidazo [4,5-b]pyridin-2-yl)-1H-pyrazolo[4,3-b]pyridine]: the EC50 came to 1.81 µM in assay [1], 1.16 µM in assay [2], 1.71 µM in assay [3] and 1.5 µM in assay [4].

Consider `Cc1ncc(-c2ccc3[nH]nc(-c4nc5c(-c6cc(F)cc(NCCN(C)C)c6)ccnc5[nH]4)c3n2)n1C` [Compound 781, N^1-(3-(2-(5-(1,2-Dimethyl-1H-imidazol-5-yl)-1H-pyrazolo[4,3-b]pyridin-3-yl)-3H-imidazo[4,5-b]pyridin-7-yl)-5-fluorophenyl)-N^2,N^2-dimethylethane-1,2-diamine], for which the EC50 in assay [1] was 0.62 µM; in assay [2], 0.927 µM; in assay [3], 4.8 µM; in assay [4], 0.638 µM.

For the molecule `Fc1ccccc1-c1ccnc2[nH]c(-c3n[nH]c4ccc(-c5cncc(CNCC6CCCC6)c5)nc34)nc12` [Compound 81, 1-Cyclopentyl-N-((5-(3-(7-(2-fluorophenyl)-3H-imidazo[4,5-b]pyridin-2-yl)-1H-pyrazolo[4,3-b]pyridin-5-yl)pyridin-3-yl)methyl)methanamine], the concentration giving a half-maximal response (EC50) in assay [1] was found to be 1.12 µM; in assay [2], 2.64 µM; in assay [3], 1.6 µM; in assay [4], 5.75 µM.

For `Cc1ccc(-c2ccnc3[nH]c(-c4n[nH]c5ccc(C6=CCNCC6)nc45)nc23)s1` [Compound 730, 3-(7-(5-Methylthiophen-2-yl)-3H-imidazo[4,5-b]pyridin-2-yl)-5-(1,2,3,6-tetrahydropyridin-4-yl)-1H-pyrazolo[4,3-b]pyridine], the EC50 in assay [1] stood at 3.17 µM; in assay [2], 3.48 µM; in assay [3], 0.489 µM; in assay [4], 0.558 µM.

Take `c1ccc(-c2ccc3[nH]nc(-c4nc5cccnc5[nH]4)c3n2)nc1` [Compound 280, 3-(3H-Imidazo[4,5-b]pyridin-2-yl)-5-(pyridin-2-yl)-1H-pyrazolo[4,3-b]pyridine]: the EC50 in assay [1] is 0.687 µM; in assay [2] it was 2.29 µM; in assay [3], 3.88 µM; in assay [4], 0.115 µM.

`FC1(F)CCN(Cc2cncc(-c3ccc4[nH]nc(-c5nc6c(N7CCCCC7)ccnc6[nH]5)c4n3)c2)C1` [Compound 194, 5-(5-((3,3-Difluoropyrrolidin-1-yl)methyl)pyridin-3-yl)-3-(7-(piperidin-1-yl)-3H-imidazo[4,5-b]pyridin-2-yl)-1H-pyrazolo[4,3-b]pyridine]: the concentration for a half-maximal effect (EC50) in assay [1] is 4.13 µM; in assay [2] it was 0.832 µM; in assay [3], 1.19 µM; in assay [4] it was 5.42 µM.

A word on the EC50: it is the concentration that produces a half-maximal response. A low value points to greater potency.
